Experimental data: patent US12527782B2, “Use of hexokinase 2/mitochondria-detaching compounds for treating hexokinase-2 (HK2)-expressing cancers” (Vidac Pharma Ltd., priority 2016, dated 2026)
Entries after “also recorded” stand apart in the source; their conditions may differ.

Experiments:
[1] = test system: Leukemia (AML) LEXFAM MV4-11; assay: CFA, LEXFAM MV4-11; assay type: cell-based, human; settings: Cell line/CFA
Procedure: (§1) CFA was performed by Charles River Laboratories (Freiburg, Germany) in 96-well plate format according to a modified two-layer soft agar assay. The origin of the tumor xenografts has been described (Fiebig et al. 1989, incorporated herein by reference). The list of tumors used in this study is detailed in Table 1.

[2] = test system: Leukemia (AML) LEXFAM HL-60; assay: CFA, LEXFAM HL-60; assay type: cell-based, human; settings: Cell line/CFA
Procedure: as §1

[3] = test system: Leukemia (BCLL) LEXFCL MEC-1; assay: CFA, LEXFCL MEC-1; assay type: cell-based, human; settings: Cell line/CFA
Procedure: as §1

[4] = test system: Leukemia (BCLL) LEXFCM EM-2; assay: CFA, LEXFCM EM-2; assay type: cell-based, human; settings: Cell line/CFA
Procedure: as §1

[5] = test system: Lung (NSCLC, adeno) LXFA 1041; assay: CFA, LXFA 1041; assay type: cell-based, human; settings: PDX/CFA
Procedure: as §1

[6] = test system: Lymphoma (Non-Hodgkin) LYXFNH U-937; assay: CFA, LYXFNH U-937; assay type: cell-based, human; settings: Cell line/CFA
Procedure: as §1

Pancreas PAXF 736 = assay: CFA, PAXF 736; assay type: cell-based, human; settings: PDX/CFA
Procedure: as §1

A431 cells = assay: Cellular ATP determination (CellTiter-Glo) in A431 cells; assay type: cell-based, human; settings: 2-hour incubation
Procedure: Cellular ATP levels were determined using CellTiter-Glo® Luminescent Cell Viability Assay kit (Promega, Madison, WI) following 2 hours of treatment at 37° C.

[7] = test system: AK/cSCC mouse model of chronic UVB exposure; assay: AK/cSCC mouse model of chronic UVB exposure: histopathology and IHC of epidermis; assay type: in vivo; settings: for HK2 protein levels in AK areas (IHC): 5% Formula C
Procedure: (§2) The formulation ingredients for vehicle, 2.5%, and 5% Formula C ointment consisted of: 32% Gelucire44/14® (Gattefosse, Saint-Priest, France), and 68% combined Labrasol® (Gattefosse, Saint-Priest, France) with corresponding amount of Formula C (w/w). New ointments were prepared every 2 weeks. The 40% topical solution was prepared just prior to use by mixing (w/w) 60% propylene glycol (Sigma, St. Louis, MO, USA) with 40% Formula C.
Histopathological analysis and IHC was performed according to standard protocols. Primary antibodies used: rabbit anti-HK1 and rabbit anti-HK2 (C35C4 and C64G5, CST, Danvers, MA), rabbit anti cleaved caspase 3 (PP229, Biocare Medical, Concord, CA), Secondary antibody was goat anti-Rabbit IgG(H+L) (474-1506, KPL, Gaithersburg, MD). Rabbit anti-CD3 (SP7), rabbit anti-F4/80 (SB-M3072, SB-M4152, Nordic Biosite, Taby, Sweden), mouse anti-Langerin/CD207 (DDX0361, Dendritics, Lyon, France). For these three primary antibodies, a polymer system was used as a secondary antibody (KDB-10046 and KDB-10007, Nordic Biosite, Taby, Sweden). Semi-quantitative analysis was done in a blinded manner by a single experienced pathologist scoring ×40 high power fields, 7 different fields per slide.
(§3) The effect of Formula C on cell proliferation and apoptosis was tested in an AK/cSCC mouse model of chronic UVB exposure. Forty-eight SKH-1 hairless female mice were chronically exposed to UVB radiation for 16 weeks. By that time, more than 60% of the animals had developed at least one SCC lesion. Three days after the final irradiation dose, the mice were randomly assigned to 1 of 4 treatment groups (N=12 mice/group) and a 50-day treatment phase started. Treatment groups included: vehicle, 2.5% or 5% Formula C ointment applied once-daily for 50 days, or 40% Formula C topical solution applied once-daily for the first 5 days of every three-week cycle (total of three treatment cycles).

[8] = AK/cSCC mouse model of chronic UVB exposure: local and general tolerability; assay type: in vivo; settings: UVB-exposed SKH-1 mice, Day 1 through Day 50
Procedure: as §2, §3

[9] = Phase 1a single topical application, safety and tolerability; assay type: in vivo, human; settings: healthy volunteers
Procedure: The Phase 1a clinical trial was a randomized, double-blinded, placebo-controlled, dose-escalation study in healthy older-adult volunteers to evaluate the safety, tolerability, and pharmacokinetics of a single topical dermal application of Formula C ointment. The study was conducted under FDA IND in a Phase 1 unit in the United States.
Fifteen healthy volunteers, aged 35-70, were sequentially assigned to 1 of 3 consecutive treatment cohorts (5%, 10% or 20% Formula C ointment, respectively). Five subjects were randomized in a double-blind fashion in each dose cohort: 4 subjects received active Formula C ointment and 1 received matched placebo (0% Formula C; vehicle control). The study ointment (250 mg) was applied once to a 25 centimeter squared area of skin on the forehead of each volunteer.

[10] = Phase 2a in subjects with actinic keratosis, pharmacokinetics; assay type: in vivo, human; settings: subjects with AK; topical application
Procedure: The Phase 2 clinical trial was a multiple-center randomized, double-blind, placebo-controlled, parallel-cohorts study to evaluate the efficacy, safety, tolerability, and pharmacokinetics of once-daily application of topical Formula C ointment (QD 200 mg) for 28 days in subjects with actinic keratosis. Subjects were followed for one or two months after they completed treatment (through day 56 or day 84). The primary and exploratory efficacy endpoints for the study were reduction in the number of lesions on days 56 and 84, respectively. Subjects were randomly assigned in a double-blind fashion to one of three parallel treatment cohorts (5%, or 10% Formula C, or placebo) at a ratio of 1:1:1. To qualify for the study, subjects aged 18 (inclusive) or older must have had 4-8 discrete Grade 1 or 2 AK lesions within a 25-centimeter squared area of the skin of their scalp or face. The study enrolled 93 subjects in the US and Israel.

## CC/C=C\CC1C(=O)CCC1CC(=O)Oc1cccc2cccnc12 (stereo not shown) [Formula C]
[1]
  IC50: 1200 nM
[2]
  IC50: 1540 nM
[3]
  IC50: 1160 nM
[4]
  IC50: 2780 nM
[5]
  IC50: 1500 nM
[6]
  IC50: 1280 nM
Pancreas PAXF 736
  IC50: 1740 nM
A431 cells
  reduction of cellular ATP levels: ≤ 50%
[7]; UVB-exposed SKH-1 mice, Day 50
  cleaved caspase-3 positive cells (IHC), apoptosis in epidermis: induces apoptosis; also recorded: statistically significant induction of apoptosis
[7]; UVB-exposed SKH-1 mice, Day 50, all Formula C treatment groups vs vehicle
  mitotic index in AK regions of the skin (epidermis): reduces cell proliferation; also recorded: significantly reduced
[7]; UVB-exposed SKH-1 mice, topical treatment, data not shown
  epidermal thickness (histopathology): thinner epidermis
[7]; UVB-exposed mice, 5% Formula C ointment, 50 days of treatment
  HK2 staining in epidermis (IHC): decreases after 50 days; also recorded: HK2 staining levels are low
[7]; UVB-exposed mice, 2 days of treatment, satellite study
  HK2 protein levels in AK areas (IHC): dramatic decrease in HK2 protein levels
[7]; UVB-exposed mice, one day of treatment, data not shown
  HK2 protein levels in AK areas (IHC): did not show this effect
[8]; 2.5%, 5% ointment or 40% topical solution
  adverse local skin reactions: no adverse local skin reactions of any kind
[8]
  body weight abnormalities: no abnormalities in body weight
  clinical signs: no clinical signs
  erythema or edema: no erythema or edema
[9]; single topical application
  clinically significant changes at application sites, vital signs, physical examinations, clinical laboratory results, ECGs, Holter monitors: No clinically significant changes
  severity and course of adverse events: mild, short-lived and reversible
[9]; single topical application of 250 mg 5%, 10% or 20% ointment to 25 cm2 forehead
  serious adverse events: No serious adverse events
[10]
  systemic exposure of VDA-1102 or its major metabolite: No systemic exposure
